Source: patent US20200361871A1 (Enterprise Therapeutics Ltd., priority 2018, published 2020)

Biological target: human TMEM16A (TMEM16Aabc variant) (Homo sapiens, UniProt Q5XXA6, DEL476-501, form not given)
Experiment: Automated whole-cell patch clamp (Qpatch) TMEM16A potentiator assay in FRT cells stably expressing human TMEM16A
Format: cell-based
Details: for % Potentiation @ 3.33 μM Avg: 3.33 μM solution of test compound, percentage increase of baseline TMEM16A current; for EC50: calculated EC50, Qpatch TMEM16A current at +70 mV
How it was run: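 FRT cells stably expressing human TMEM16Aabc were recorded by automated whole-cell patch clamp, with intracellular Ca2+ buffered for ~EC20 activation, holding −70 mV and step to +70 mV at 0.05 Hz. Compound was applied cumulatively, 5 min per concentration. Peak current increase as % of baseline was fitted to give EC50 and maximum efficacy.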

Sequence of human TMEM16A (TMEM16Aabc variant) (Q5XXA6 with tags, fused parts or gaps DEL476-501): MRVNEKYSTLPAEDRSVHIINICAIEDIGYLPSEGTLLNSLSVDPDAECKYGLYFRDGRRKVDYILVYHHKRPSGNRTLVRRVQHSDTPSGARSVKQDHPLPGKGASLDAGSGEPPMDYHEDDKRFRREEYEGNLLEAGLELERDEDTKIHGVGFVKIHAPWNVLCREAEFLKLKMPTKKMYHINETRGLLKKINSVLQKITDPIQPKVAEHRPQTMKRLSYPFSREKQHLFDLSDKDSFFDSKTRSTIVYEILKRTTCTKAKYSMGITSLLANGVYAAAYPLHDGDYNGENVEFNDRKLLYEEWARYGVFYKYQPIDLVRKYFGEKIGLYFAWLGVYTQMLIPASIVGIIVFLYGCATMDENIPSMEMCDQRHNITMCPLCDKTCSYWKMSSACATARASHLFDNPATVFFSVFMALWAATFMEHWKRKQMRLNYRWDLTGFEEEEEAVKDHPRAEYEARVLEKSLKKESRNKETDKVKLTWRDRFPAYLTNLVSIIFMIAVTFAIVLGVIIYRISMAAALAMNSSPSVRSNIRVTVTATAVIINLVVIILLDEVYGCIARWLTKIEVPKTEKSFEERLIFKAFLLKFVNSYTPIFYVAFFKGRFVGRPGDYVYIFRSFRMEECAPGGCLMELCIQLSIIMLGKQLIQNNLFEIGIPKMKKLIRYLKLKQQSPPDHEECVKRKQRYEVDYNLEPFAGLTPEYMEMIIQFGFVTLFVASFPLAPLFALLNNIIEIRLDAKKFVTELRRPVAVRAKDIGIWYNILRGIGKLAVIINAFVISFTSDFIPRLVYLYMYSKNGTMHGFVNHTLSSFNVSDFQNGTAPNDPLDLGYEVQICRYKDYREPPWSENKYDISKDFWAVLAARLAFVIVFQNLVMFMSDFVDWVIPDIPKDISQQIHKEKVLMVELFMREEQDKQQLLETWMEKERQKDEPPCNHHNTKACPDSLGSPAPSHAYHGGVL

| SMILES | % Potentiation @ 3.33 μM Avg [%] | EC50 [µM] |
| --- | --- | --- |
| Cc1cccc(CC(=O)Nc2ccnc(C(=O)NC(C)(C)C)c2)c1 [Example 5.14, N-tert-Butyl-4-[[2-(m-tolyl)acetyl]amino]pyridine-2-carboxamide] | 128 | 0.76 |
| O=C(Cc1cc(Cl)ccc1O)Nc1cccc(C(=O)NC2CCCCC2)c1 [Example 7.3, 3-[[2-(5-Chloro-2-hydroxy-phenyl)acetyl]amino]-N-cyclohexyl-benzamide] | 125 | 0.2 |
| C#CC(C)(C)NC(=O)c1cc(NC(=O)CC(C)(C)C)ccn1 [Example 22.1, 4-(3,3-Dimethylbutanoylamino)-N-(1,1-dimethylprop-2-ynyl)pyridine-2-carboxamide] | 114 |  |
| CC(C)(C)NC(=O)c1cc(NC(=O)Cc2cc(F)cc(F)c2)ccn1 [Example 23.7, N-tert-Butyl-4-[[2-(3,5-difluorophenyl)acetyl]amino]pyridine-2-carboxamide] | 98 |  |
| O=C(Cc1cc(Cl)ccc1O)Nc1ccnc(C(=O)N[C@H]2CCC[C@@H]2O)c1 [Example 35.17, 4-[[2-(5-Chloro-2-hydroxy-phenyl)acetyl]amino]-N-[(1S,2S)-2-hydroxycyclopentyl]pyridine-2-carboxamide] | 153 | 0.15 |
| C#CC(C)(C)NC(=O)c1cc(NC(=O)Cc2cccc3[nH]ncc23)ccn1 [Example 79.2, N-(1,1-Dimethylprop-2-ynyl)-4-[[2-(1H-indazol-4-yl)acetyl]amino]pyridine-2-carboxamide] | 211 |  |
| CC(C)c1cc(Cl)cc(CC(=O)Nc2ccnc(C(=O)NC(C)(C)C)c2)c1O [Example 61, N-tert-Butyl-4-[[2-(5-chloro-2-hydroxy-3-isopropyl-phenyl)acetyl]amino]pyridine-2-carboxamide] | 85 |  |
| CC1(NC(=O)c2cc(NC(=O)Cc3cc(Cl)ccc3O)ccn2)CCOCC1 [Example 7.9, 4-[[2-(5-Chloro-2-hydroxy-phenyl)acetyl]amino]-N-(4-methyltetrahydropyran-4-yl)pyridine-2-carboxamide] | 288 | 0.23 |
| CC(C)(C)NC(=O)c1cc(NC(=O)Cc2ccc(C(C)(C)C)c(N)c2)ccn1 [Example 87, 4-[[2-(3-Amino-4-tert-butyl-phenyl)acetyl]amino]-N-tert-butyl-pyridine-2-carboxamide] | 332 | 0.22 |
| CCC(C)(C)NC(=O)c1cccc(NC(=O)Cc2ccccc2O)c1 [Example 1.1, N-(1,1-Dimethylpropyl)-3[[2-(2-hydroxyphenyl)acetyl]amino]benzamide] | 182 | 0.56 |
| CC(C)(C)NC(=O)c1cc(NC(=O)Cc2cccc(O)c2Cl)ccn1 [Example 3.15b, N-tert-Butyl-4-[[2-(2-chloro-3-hydroxy-phenyl)acetyl]amino]pyridine-2-carboxamide] | 127 |  |
| N#CC1(NC(=O)c2cc(NC(=O)Cc3cc(Cl)ccc3O)ccn2)CCOC1 (stereo not drawn) [Example 47, 4-[[2-(5-Chloro-2-hydroxy-phenyl)acetyl]amino]-N-(3-cyanotetrahydrofuran-3-yl)pyridine-2-carboxamide] | 237 | 0.18 |
| CC(C)(C)NC(=O)c1cc(NC(=O)C2CCCc3ccccc32)ccn1 (stereo not drawn) [Example 5.27, N-tert-Butyl-4-(tetralin-1-carbonylamino) pyridine-2-carboxamide] | 84 |  |
| Cc1ccc(CC(=O)Nc2ccnc(C(=O)NC(C)(C)C)c2)cc1 [Example 5.11, N-tert-Butyl-4-[[2-(p-tolyl)acetyl]amino]pyridine-2-carboxamide] | 89 | 0.17 |
| COc1cc(CCC(=O)Nc2ccnc(C(=O)NC(C)(C)C#N)c2)ccn1 [Example 83.13, N-(1-Cyano-1-methyl-ethyl)-4-[3-(2-methoxy-4-pyridyl)propanoylamino]pyridine-2-carboxamide] | -1 |  |
| CC(C)(C)NC(=O)c1cc(NC(=O)C2COc3ccccc32)ccn1 (stereo not drawn) [Example 5.25, N-tert-Butyl-4-(2,3-dihydrobenzofuran-3-carbonylamino)pyridine-2-carboxamide] | 67 |  |
| CC(C)(C)NC(=O)c1cc(NC(=O)NCc2ccc(Cl)cc2)ccn1 [Example 64.8, N-tert-butyl-4-[(4-chlorophenyl)methylcarbamoylamino]pyridine-2-carboxamide] | 97 |  |
| N#CC1(NC(=O)c2cc(NC(=O)Cc3cc(Cl)ccc3O)ccn2)CCOCC1 [Example 31, 4-[[2-(5-Chloro-2-hydroxy-phenyl)acetyl]amino]-N-(4-cyanotetrahydropyran-4-yl)pyridine-2-carboxamide] | 223 | 0.12 |

| SMILES | % Potentiation @ 3.33 μM Avg [%] | EC50 [µM] |
| --- | --- | --- |
| CC(C)(C#N)NC(=O)c1cc(NC(=O)c2conc2-c2ccccc2)ccn1 [Example 83.20, N-[2-[(1-Cyano-1-methyl-ethyl)carbamoyl]-4-pyridyl]-3-phenyl-isoxazole-4-carboxamide] | 9 |  |
| CC(C#N)(CO)NC(=O)c1cc(NC(=O)Cc2ccccc2F)ccn1 (stereo not drawn) [Example 60.1, N-(1-Cyano-2-hydroxy-1-methyl-ethyl)-4-[[2-(2-fluorophenyl)acetyl]amino]pyridine-2-carboxamide] | 60 |  |
| O=C(Cc1cc(F)ccc1O)Nc1ccnc(C(=O)NC2(CO)CCC2)c1 [Example 81.5, 4-[[2-(5-Fluoro-2-hydroxy-phenyl)acetyl]amino]-N-[1-(hydroxymethyl)cyclobutyl] pyridine-2-carboxamide] | 74 |  |
| CC(C)(C)NC(=O)c1cc(NC(=O)Cc2cc(Cl)cc(Cl)c2)ccn1 [Example 5.19, N-tert-Butyl-4-[[2-(3,5-dichlorophenyl)acetyl]amino]pyridine-2-carboxamide] | 75 | 1.85 |
| O=C(Cc1cc(Cl)ccc1O)Nc1ccnc(C(=O)N[C@@H]2CCC[C@H]2O)c1 [Example 33, 4-[[2-(5-Chloro-2-hydroxy-phenyl)acetyl]amino]-N-[(1R,2R)-2-hydroxycyclopentyl] pyridine-2-carboxamide] | 245 | 0.24 |
| CCCC(C)(C)NC(=O)c1cc(NC(=O)Cc2cc(Cl)ccc2O)ccn1 [Example 7.2, 4-[[2-(5-Chloro-2-hydroxy-phenyl)acetyl]amino]-N-(1,1-dimethylbutyl)pyridine-2-carboxamide] | 203 | 0.26 |
| O=C(Cc1cc(Cl)ccc1O)Nc1ccnc(C(=O)NCc2ccccc2O)c1 [Example 32.5, 4-[[2-(5-Chloro-2-hydroxy-phenyl)acetyl]amino]-N-[(2-hydroxyphenyl)methyl]pyridine-2-carboxamide] | 177 | 0.59 |
| CC1(NC(=O)c2cccc(NC(=O)Cc3cc(Cl)ccc3O)c2)CCOCC1 [Example 7.8, 3-[[2-(5-Chloro-2-hydroxy-phenyl)acetyl]amino]-N-(4-methyltetrahydropyran-4-yl)benzamide] | 231 | 0.92 |
| CC(C)(C)NC(=O)c1cccc(NC(=O)Cc2c(O)cccc2O)c1 [Example 2.4, N-tert-Butyl-3-[[2-(2,6-dihydroxyphenyl)acetyl]amino]benzamide] | 53 |  |
| CC(C)(C)NC(=O)c1cc(NC(=O)Cc2ccc(C(F)(F)F)cc2O)ccn1 [Example 3.7b, N-tert-Butyl-4-[[2-[2-hydroxy-4-(trifluoromethyl)phenyl]acetyl]amino]pyridine-2-carboxamide] | 160 | 0.18 |
| CC(C)(C)NC(=O)c1cc(NC(=O)Cc2ccccc2Cl)ccn1 [Example 5.20, N-tert-Butyl-4-[[2-(2-chlorophenyl)acetyl]amino]pyridine-2-carboxamide] | 221 | 0.57 |
| O=C(Cc1cc(Cl)ccc1O)Nc1ccnc(C(=O)NC2CCCCC2)c1 [Example 1.10, 4-[[2-(5-Chloro-2-hydroxy-phenyl)acetyl]amino]-N-cyclohexyl-pyridine-2-carboxamide] | 200 | 0.08 |
| COc1ccc(F)c(F)c1CC(=O)Nc1cccc(C(=O)NC(C)(C)C)c1 [Example 4.8, N-tert-Butyl-3-[[2-(2,3-difluoro-6-methoxy-phenyl)acetyl]amino]benzamide] | 55 | 2.07 |
| CC(C)(C)NC(=O)c1cc(NC(=O)Cc2ccccc2C(F)F)ccn1 [Example 23.5, N-tert-Butyl-4-[[2-[2-(difluoromethyl)phenyl]acetyl]amino]pyridine-2-carboxamide] | 110 |  |
| CC(C)(C)NC(=O)c1cc(NC(=O)Cc2cccnc2Cl)ccn1 [Example 5.16, N-tert-Butyl-4-[[2-(2-chloro-3-pyridyl)acetyl]amino]pyridine-2-carboxamide] | 110 |  |
| CC1(NC(=O)c2cc(NC(=O)Cc3cc(C(C)(C)C)ccc3O)ccn2)CCC1 [Example 3.6a, 4-[[2-(5-tert-Butyl-2-hydroxy-phenyl)acetyl]amino]-N-(1-methylcyclobutyl)pyridine-2-carboxamide] | 546 | 0.37 |
| COc1cccc(CC(=O)Nc2cccc(C(=O)NC(C)(C)C)c2)c1O [Example 2.8, N-tert-Butyl-3-[[2-(2-hydroxy-3-methoxy-phenyl)acetyl]amino] benzamide] | 74 | 4.55 |
| N#CC1(NC(=O)c2cc(NC(=O)Cc3ccccc3Cl)ccn2)CC1 [Example 30.7, 4-[[2-(2-Chlorophenyl)acetyl]amino]-N-(1-cyanocyclopropyl)pyridine-2-carboxamide] | 124 | 0.34 |
